The values below come from patent US20060154923A1, “N-phenyl-3-cyclopropylpyrazole-4-carbonitriles as ectoparasiticidal agents” (priority 2002, published 2006).

Common to all, as to format: in vivo
Data set [1] relates to Ctenocephatides felis, adult cat fleas. Kind of data set: Contact activity against adult cat fleas, coated glass vial assay. The protocol:
Evaluation of the Efficacy of Test Compounds Against Adult Cat Fleas
The contact activity of a test compound against Ctenocephatides felis, adult cat fleas, is evaluated in a coated, glass vial assay. In this evaluation, a solution of test compound in acetone is allowed to dry on the interior surface of a 20 mL vial. Ten unfed adult cat fleas are added to the treated vial and mortality is assessed periodically for up to 48 h. All treatments are replicated 2 times. The data are averaged.

The test system of data set [2] is Rhipacephalus sanguineus, adult ticks. Kind of data set: Contact activity against adult ticks, coated glass vial assay. The protocol:
Evaluation of the Efficacy of Test Compounds Against Adult Ticks
The contact activity of a test compound against Rhipacephalus sanguineus, adult ticks, is evaluated in a coated glass vial assay. In this evaluation, a solution of test compound in acetone is allowed to dry on the interior surface of a 20 mL vial. Five unfed adult ticks are added to the treated vial and mortality is assessed periodically for up to 48 h. All treatments are replicated 2 times. The data are averaged.

The test system of data set [3] is newly emerged larvae of Lucilia sericata, blowfly. Kind of data set: Efficacy against blowfly larvae, treated paper/serum bioassay. To be noted: blowfly larvae; for mortality at 0.2 ppm / mortality at 2 ppm / mortality at 20 ppm: Lucilia sericata. The protocol: Evaluation of Efficacy of Test Compounds Against Blowfly Larvae
The efficacy of a test compound against newly emerged larvae of Lucilia sericata, blowfly, is evaluated using a treated paper/serum bioassay. In this evaluation, a solution of test compound in acetone is applied to a filter paper disc and the disc is allowed to dry. Bovine serum and about 20 newly emerged blowfly larvae are added to the treated paper disc and the mortality is assessed at 24 h and 48 h. The data are averaged.

Setting [4] is: Conc. 0.2 ppm, 24 h, read-out: % Mortality 24 h.
Setting [5] is: Conc. 0.2 ppm, 48 h, read-out: % Mortality 48 h.
Where [6] appears, read: Conc. 2.0 ppm, 24 h, read-out: % Mortality 24 h.
Where [7] appears, read: Conc. 2.0 ppm, 48 h, read-out: % Mortality 48 h.
Setting [8] is: Conc. 20.0 ppm, 24 h, read-out: % Mortality 24 h.
Setting [9] is: Conc. 20.0 ppm, 48 h, read-out: % Mortality 48 h.

Read-outs that look alike come from different tables or passages of the source.

With `CC1(c2nn(-c3c(Cl)cc(C(F)(F)F)cc3Cl)c(Cl)c2C#N)CC1(Cl)Cl` (stereo not drawn) [Example 4, 5-Chloro-3-(2,2-dichloro-1-methylcyclopropyl)-1-[2,6-dichloro-4-(trifluoromethyl)phenyl]-1H-pyrazole-4-carbonitrile], the “% Mortality 4 h” value came to 20% in data set [1] (Conc. 0.002 ug/cm2, 4 h); 60% in data set [1] (Conc. 0.2 ug/cm2, 4 h); 100% in data set [1] (Conc. 2 ug/cm2, 4 h); 60% in data set [2] (Conc. 0.78 ug/cm2, 4 h); 60% in data set [2] (Conc. 7.80 ug/cm2, 4 h). Also, the “% Mortality 24 h” value in data set [1] (Conc. 0.002 ug/cm2, 24 h) is given as 100%; in data set [1] (Conc. 0.2 ug/cm2, 24 h) it was 100%; in data set [1] (Conc. 2 ug/cm2, 24 h), 100%; in data set [2] (Conc. 0.78 ug/cm2, 24 h) it was 100%; in data set [2] (Conc. 7.80 ug/cm2, 24 h), 100%. Besides, the mortality at 0.2 ppm in data set [3] (setting [4]) and in data set [3] (setting [5]) was 100% throughout. In addition, the mortality at 2 ppm in data set [3] (setting [6]) and in data set [3] (setting [7]) was 100% in each case. In addition, the mortality at 20 ppm in data set [3] (setting [8]) and in data set [3] (setting [9]) was 100% each time.

On to `CC1C(Cl)(Cl)C1(C)c1nn(-c2c(Cl)cc(C(F)(F)F)cc2Cl)cc1C#N` (stereo not drawn) [Example 7], for which the “% Mortality 4 h” value in data set [1] (Conc. 2 ug/cm2, 4 h) was determined as 0%; in data set [2] (Conc. 0.78 ug/cm2, 4 h) it was 0%; in data set [2] (Conc. 7.80 ug/cm2, 4 h), 10%. For the same compound, the “% Mortality 24 h” value in data set [1] (Conc. 2 ug/cm2, 24 h) came out at 100%; in data set [2] (Conc. 0.78 ug/cm2, 24 h) it was 10%; in data set [2] (Conc. 7.80 ug/cm2, 24 h), 80%; in data set [3] (Conc. 2.0 ppm, 24 h), 0%; in data set [3] (Conc. 20.0 ppm, 24 h), 77%. In addition, the “% Mortality 48 h” value in data set [3] (Conc. 2.0 ppm, 48 h) was 0%; in data set [3] (Conc. 20.0 ppm, 48 h), 90%.

For the compound `CC1(c2nn(-c3c(Cl)cc(C(F)(F)F)cc3Cl)cc2C#N)CC1(Br)Br` (stereo not drawn) [Example 14], the “% Mortality 4 h” value in data set [1] (Conc. 2 ug/cm2, 4 h) is reported as 10%; in data set [2] (Conc. 0.78 ug/cm2, 4 h) it was 40%; in data set [2] (Conc. 7.80 ug/cm2, 4 h), 50%. Besides, the “% Mortality 24 h” value was found to be 100% in data set [1] (Conc. 2 ug/cm2, 24 h); 40% in data set [2] (Conc. 0.78 ug/cm2, 24 h); 80% in data set [2] (Conc. 7.80 ug/cm2, 24 h); 50% in data set [3] (Conc. 0.2 ppm, 24 h); 100% in data set [3] (Conc. 2.0 ppm, 24 h); 95% in data set [3] (Conc. 20.0 ppm, 24 h). The “% Mortality 48 h” value in data set [3] (Conc. 0.2 ppm, 48 h) was found to be 50%; in data set [3] (Conc. 2.0 ppm, 48 h), 100%; in data set [3] (Conc. 20.0 ppm, 48 h) it was 100%.

For `CC1(c2nn(-c3c(Cl)cc(C(F)(F)F)cc3Cl)c(N)c2C#N)CC1(Cl)Cl` (stereo not drawn) [Example 19, 5-Amino-3-(2,2-dichloro-1-methylcyclopropyl)-1-[2,6-dichloro-4-(trifluoromethyl)phenyl]-1H-pyrazole-4-carbonitrile], the “% Mortality 4 h” value in data set [1] (Conc. 2 ug/cm2, 4 h) was determined as 0%; in data set [2] (Conc. 0.78 ug/cm2, 4 h) it was 0%; in data set [2] (Conc. 7.80 ug/cm2, 4 h), 40%. Further, the “% Mortality 24 h” value turned out to be 10% in data set [1] (Conc. 2 ug/cm2, 24 h); 20% in data set [2] (Conc. 0.78 ug/cm2, 24 h); 70% in data set [2] (Conc. 7.80 ug/cm2, 24 h). Besides, the mortality at 0.2 ppm in data set [3] (setting [4]) and in data set [3] (setting [5]) was 0% throughout. Also, the mortality at 2 ppm in data set [3] (setting [6]) and in data set [3] (setting [7]) was 100% in each case. Moreover, the mortality at 20 ppm in data set [3] (setting [8]) was 75%; in data set [3] (setting [9]), 95%.

Turning to `CC1(c2nn(-c3c(Cl)cc(C(F)(F)F)cc3Cl)c(Cl)c2C#N)CC1(Br)Br` (stereo not drawn) [Example 20], the “% Mortality 4 h” value is recorded as 20% in data set [1] (Conc. 2 ug/cm2, 4 h); 0% in data set [2] (Conc. 0.78 ug/cm2, 4 h); 20% in data set [2] (Conc. 7.80 ug/cm2, 4 h). Also, the “% Mortality 24 h” value in data set [1] (Conc. 2 ug/cm2, 24 h) came to 100%; in data set [2] (Conc. 0.78 ug/cm2, 24 h), 20%; in data set [2] (Conc. 7.80 ug/cm2, 24 h) it was 50%; in data set [3] (Conc. 0.2 ppm, 24 h), 0%; in data set [3] (Conc. 2.0 ppm, 24 h) it was 100%; in data set [3] (Conc. 20.0 ppm, 24 h), 100%. The “% Mortality 48 h” value is recorded as 0% in data set [3] (Conc. 0.2 ppm, 48 h); 100% in data set [3] (Conc. 2.0 ppm, 48 h); 100% in data set [3] (Conc. 20.0 ppm, 48 h).

Take `CC1(c2nn(-c3c(Cl)cc(C(F)(F)F)cc3Cl)c(N)c2C#N)CC1(Br)Br` (stereo not drawn) [Example 21]: the “% Mortality 4 h” value stood at 0% in data set [1] (Conc. 2 ug/cm2, 4 h); 10% in data set [2] (Conc. 0.78 ug/cm2, 4 h); 0% in data set [2] (Conc. 7.80 ug/cm2, 4 h). The “% Mortality 24 h” value in data set [1] (Conc. 2 ug/cm2, 24 h) stood at 0%; in data set [2] (Conc. 0.78 ug/cm2, 24 h), 10%; in data set [2] (Conc. 7.80 ug/cm2, 24 h), 40%; in data set [3] (Conc. 0.2 ppm, 24 h) it was 0%; in data set [3] (Conc. 2.0 ppm, 24 h), 95%; in data set [3] (Conc. 20.0 ppm, 24 h), 90%. In addition, the “% Mortality 48 h” value in data set [3] (Conc. 0.2 ppm, 48 h) is recorded as 0%; in data set [3] (Conc. 2.0 ppm, 48 h), 100%; in data set [3] (Conc. 20.0 ppm, 48 h), 100%.

On to `CC1(c2nn(-c3c(Cl)cc(C(F)(F)F)cc3Cl)c(Br)c2C#N)CC1(Br)Br` (stereo not drawn) [Example 22], for which the “% Mortality 4 h” value in data set [1] (Conc. 2 ug/cm2, 4 h) was 0%; in data set [2] (Conc. 0.78 ug/cm2, 4 h), 20%; in data set [2] (Conc. 7.80 ug/cm2, 4 h), 0%. For the same compound, the “% Mortality 24 h” value stood at 100% in data set [1] (Conc. 2 ug/cm2, 24 h); 30% in data set [2] (Conc. 0.78 ug/cm2, 24 h); 60% in data set [2] (Conc. 7.80 ug/cm2, 24 h); 0% in data set [3] (Conc. 0.2 ppm, 24 h); 100% in data set [3] (Conc. 2.0 ppm, 24 h); 100% in data set [3] (Conc. 20.0 ppm, 24 h). Further, the “% Mortality 48 h” value stood at 0% in data set [3] (Conc. 0.2 ppm, 48 h); 100% in data set [3] (Conc. 2.0 ppm, 48 h); 100% in data set [3] (Conc. 20.0 ppm, 48 h).

In the case of `CC1(c2nn(-c3c(Cl)cc(C(F)(F)F)cc3Cl)c(Br)c2C#N)CC1(Cl)Cl` (stereo not drawn) [Example 29], the “% Mortality 4 h” value is listed as 10% in data set [1] (Conc. 0.02 ug/cm2, 4 h); 20% in data set [1] (Conc. 0.2 ug/cm2, 4 h); 50% in data set [1] (Conc. 2 ug/cm2, 4 h); 0% in data set [2] (Conc. 0.78 ug/cm2, 4 h); 20% in data set [2] (Conc. 7.80 ug/cm2, 4 h). Further, the “% Mortality 24 h” value in data set [1] (Conc. 0.02 ug/cm2, 24 h) was determined as 100%; in data set [1] (Conc. 0.2 ug/cm2, 24 h), 100%; in data set [1] (Conc. 2 ug/cm2, 24 h), 100%; in data set [2] (Conc. 0.78 ug/cm2, 24 h), 40%; in data set [2] (Conc. 7.80 ug/cm2, 24 h) it was 60%; in data set [3] (Conc. 0.2 ppm, 24 h), 15%. Moreover, the “% Mortality 24 h” value is given as 100% in data set [3] (Conc. 2.0 ppm, 24 h) and 100% in data set [3] (Conc. 20.0 ppm, 24 h). Moreover, the “% Mortality 48 h” value in data set [3] (Conc. 0.2 ppm, 48 h) is 15%; in data set [3] (Conc. 2.0 ppm, 48 h), 100%; in data set [3] (Conc. 20.0 ppm, 48 h) it was 100%.

As to `CC1(c2nn(-c3c(Cl)cc(C(F)(F)F)cc3Cl)c(I)c2C#N)CC1(Cl)Cl` (stereo not drawn) [Example 31], the “% Mortality 4 h” value was 20% in data set [1] (Conc. 2 ug/cm2, 4 h); 10% in data set [2] (Conc. 0.78 ug/cm2, 4 h); 50% in data set [2] (Conc. 7.80 ug/cm2, 4 h). Moreover, the “% Mortality 24 h” value in data set [1] (Conc. 2 ug/cm2, 24 h) was found to be 100%; in data set [2] (Conc. 0.78 ug/cm2, 24 h), 20%; in data set [2] (Conc. 7.80 ug/cm2, 24 h) it was 50%; in data set [3] (Conc. 0.2 ppm, 24 h), 0%; in data set [3] (Conc. 2.0 ppm, 24 h), 95%; in data set [3] (Conc. 20.0 ppm, 24 h) it was 97%. Moreover, the “% Mortality 48 h” value in data set [3] (Conc. 0.2 ppm, 48 h) was found to be 0%; in data set [3] (Conc. 2.0 ppm, 48 h) it was 100%; in data set [3] (Conc. 20.0 ppm, 48 h) it was 100%.

Consider `CN(C)c1c(C#N)c(C2(C)CC2(Cl)Cl)nn1-c1c(Cl)cc(C(F)(F)F)cc1Cl` (stereo not drawn) [Example 32], for which the “% Mortality 4 h” value was 0% in data set [1] (Conc. 2 ug/cm2, 4 h); 0% in data set [2] (Conc. 0.78 ug/cm2, 4 h); 0% in data set [2] (Conc. 7.80 ug/cm2, 4 h). In addition, the “% Mortality 24 h” value amounted to 100% in data set [1] (Conc. 2 ug/cm2, 24 h); 60% in data set [2] (Conc. 0.78 ug/cm2, 24 h); 30% in data set [2] (Conc. 7.80 ug/cm2, 24 h); 0% in data set [3] (Conc. 0.2 ppm, 24 h); 0% in data set [3] (Conc. 2.0 ppm, 24 h); 91% in data set [3] (Conc. 20.0 ppm, 24 h). Further, the “% Mortality 48 h” value is reported as 0% in data set [3] (Conc. 0.2 ppm, 48 h); 0% in data set [3] (Conc. 2.0 ppm, 48 h); 96% in data set [3] (Conc. 20.0 ppm, 48 h).
